The values below come from patent US20050130287A1, “Purifying process of soluble proteins of the l.obliqua bristles through prothrombin activation: process for a partial determination of the amino acids sequence of the prothrombin activator; process for determining the prothrombin activation of fraction II, n-terminal and internal fragments sequences” (priority 2002, published 2005).

The target of the test is T1, Lopap (Lonomia obliqua, UniProt Q5ECE3).
T1 construct: from tissue; host or cells: Lonomia obliqua caterpillar bristles
T1 sequence (Q5ECE3 17-201): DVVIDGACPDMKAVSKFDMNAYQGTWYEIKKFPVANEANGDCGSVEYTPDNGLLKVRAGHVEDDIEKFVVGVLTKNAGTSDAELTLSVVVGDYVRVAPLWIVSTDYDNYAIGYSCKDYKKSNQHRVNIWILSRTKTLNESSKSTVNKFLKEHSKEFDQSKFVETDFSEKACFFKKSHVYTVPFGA
As to the kind of experiment: Lopap inhibition by PMSF or E-64 (S-2238). It is filed as biochemical.

The structures appear in SMILES notation.

On to `CC(C)C[C@H](NC(=O)[C@H]1O[C@@H]1C(=O)O)C(=O)NCCCCN=C(N)N` (relative stereo) [E-64, trans-epoxysuccinil-L-leucilamide-(4-guanidine-butane)], for which, where the note is “3,2 mM E-64, Lopap 75 nM”, the “effect on Lopap activity” value is “did not affected it”.
On to `O=S(=O)(F)Cc1ccccc1` [PMSF, phenylmethylsulphonil fluoride], for which, under “10 mM PMSF, Lopap 75 nM”, the “effect on Lopap activity” value is recorded as “completely annulled”.
